The test system of one assay is VAL. The assay can be described thus: 72 h MTT proliferation assay on lymphoma cell lines (VAL). The assay is classed as cell-based. Conditions: VAL (GCB-DLBCL), 72h exposure time, read-out: GCB-DLBC cell lines IC50, VAL. The method, then:
(§1) A set of ten compounds was tested against four lymphoma cell lines belonging to Germinal Center B-cell-like Diffuse Large B-Cell lymphoma, GCB-DLBCL and Activated B-Cell-like Diffuse Large B-Cell lymphoma, ABC-DLBCL (Table 3). Compounds were tested in triplicates as single agents, for 72 hours by using a large range of concentrations. […] In particular, ISATIN-BENZYL is the most promising one reaching IC50s of 1 and 5 µM in the OCI-LY-10 and SU-DHL-2 cell lines (Table 3). Table 3. IC50 values obtained from MTT assay with a 72h exposure time on lymphoma cell lines.
(§2) 72 h MTT assay on lymphoma cell lines.
(§3) Compounds were dissolved in dimethyl sulphoxide (DMSO) to obtain a stock concentration of 20 mM.
(§4) Cell lines. The panel of lymphoma cell lines comprised models derived from diffuse large B-cell lymphoma (n. 4) cell lines derived from DLBCL of the germinal center B-cell type (GCB-DLBCL), such as VAL and DOHH-2, and derived of the activated B-cell type (ABC-DLBCL) such as OCI-LY-10 and SU-DHL-2.
(§5) Cells were seeded in 96-well plates (non-tissue culture treated) at a density of 10,000 cells for all cell lines. Each compound was dissolved in dimethyl sulphoxide (DMSO). For treatment of cells, compounds were serially diluted in the appropriate tissue culture medium, at a range of 20 µM - 19 nM following a 1:2 dilution factor and added to cells (in three replicates). Cells were incubated for 72 hours at 37 °C, 5% CO2. DMSO alone was added to negative control (untreated) cells. Wells containing medium only were included on each plate and served as blanks for absorbance readings. MTT (Sigma-Aldrich Chemie GmbH, Buchs, Switzerland) was prepared as a 5 mg/ml stock in PBS and filter-sterilized. MTT solution (22µL) was added to each well and tissue culture plates were incubated at 37°C for 4 hours. Cells were then lysed with 25% SDS lysis buffer and absorbance was read at 570 nm using an AD340 plate reader (Beckman Coulter International SA, Switzerland). Absorbance values were expressed in percentage of proliferating cells in comparison with control cells (control corresponds to 100%).
(In general: Tetrazolium dyes change colour on reduction, which living cells bring about.)

For a further assay, the system named is DOHH-2. The assay can be described thus: 72 h MTT proliferation assay on lymphoma cell lines (DOHH-2). It counts as cell-based. Conditions: DOHH-2 (GCB-DLBCL), 72h exposure time, read-out: GCB-DLBC cell lines IC50, DOHH-2. On the procedure:
as §1, §2, §3, §4, §5

For another assay, the system named is SU-DHL-2. The assay can be described thus: 72 h MTT proliferation assay on lymphoma cell lines (SU-DHL-2). It counts as cell-based. Conditions: SU-DHL-2 (ABC-DLBCL), 72h exposure time, read-out: ABC-DLBC cell lines IC50, SU-DHL-2. The method, then:
as §1, §2, §3, §4, §5

For the next assay, the system named is OCI-LY-10. The assay can be described thus: 72 h MTT proliferation assay on lymphoma cell lines (OCI-LY-10). Conditions: 72h exposure time, read-out: ABC-DLBC cell lines IC50, OCI-LY-10. It counts as cell-based. The method, then:
as §1, §2, §3, §4, §5

Assay [1] concerns SW480 colon adenocarcinoma cells. The assay can be described thus: 24 h MTT cytotoxicity assay, SW480 cell line. The assay is classed as cell-based. The note with it: 24h exposure time. The method, then:
One of the main strategies for the treatment of cancer is chemotherapy (De Santis et al. 2014). There are two main factors that made the development of new chemotherapeutic agents crucial: the side effects of the current anticancer drugs used in the clinic and the appearance of tumour cell resistance. A first step facing at tackling this challenging goal is the evaluation of the cytotoxic activity of the new synthesized drugs. In our case, cytotoxicity was evaluated by means of the antiproliferative assay MTT, which is a high-throughput method widely used for the screening of new drugs that is based on the ability of the mitochondrial dehydrogenases to reduce a water soluble yellow dye, namely 3-(4,5-dimethylthiazol-2-yl)-2,5-diphenyl tetrazolium bromide, to form a water insoluble blue formazan (McCauley et al., 2013). […] The best inhibition was obtained with (S)-2 (Table 2, entry 2). Overall the (S) series gave better inhibition results. Table 2 IC50 values obtained from MTT assay with a 24h exposure time
Biological Screening Studies 24 h MTT Cytototoxicity Assay - SW480 cell line
Approximately 5 × 10^3 SW480 colon adenocarcinoma cells were cultured in 200 µl culture medium per well (DMEM medium), supplemented with 10% newborn calf serum and 1% amphotericin-penicillin-streptomycin solution in 96-well plates and incubated at 37 °C under a 5% CO2 atmosphere. The cells were grown for 24h and then exposed to different concentrations of the tested drugs (dissolved in culture medium) for 24h. Hydrogen peroxide was used as a positive control. The cells were washed with the culture medium, incubated with MTT (500 µg/ml) for a further period of 3 hours. At the end of the incubation, the medium was removed, then carefully washed with PBS and 200 µl DMSO were added to each well. Absorbance was read at 570 nm in a microplate reader. Four replicates per dose were included. The IC50 values, that is, the concentrations which produced 50% inhibition of cell viability were calculated from MTT data using the GraphPadPrism Software Inc. (version 6.01) (USA).

Assay [2] has the same test system. The note with it: bench-mark value from Xu et al. 2003, SW480; cited from earlier work.
Setting [3] is: Homo sapiens, OCI-Ly10, OCI-LY-10 (ABC-DLBCL).

Structures are written as SMILES. Where two headings read alike, the source gives them in different places. Some results are limits rather than exact numbers.

The IC50 is the concentration needed to halve the response being measured. Regarding `O=C1N(Cc2cn(Cc3ccccc3)nn2)c2ccccc2C1(O)c1ccccc1` [(R) -1, 1-((1-Benzyl-1H-1,2,3-triazol-4-yl)methyl)-3-hydroxy-3-phenylindolin-2-one], the IC50 in the assay with VAL was over 20 µM; with DOHH-2 (Homo sapiens), over 20 µM; in the assay with SU-DHL-2 (Homo sapiens, SU-DHL-2, 72 h) it was over 20 µM; with OCI-LY-10 (setting [3]), over 20 µM; in assay [1] (Homo sapiens, SW480, 24 h) it was 82.6 µM.

In the case of `O=C1N(Cc2cn(Cc3ccccc3)nn2)c2ccccc2C1(O)c1ccc2ccccc2c1` [(R) -2, 1-((1-Benzyl-1H-1,2,3-triazol-4-yl)methyl)-3-hydroxy-3-(naphthalen-2-yl)indolin-2-one], the IC50 with VAL was over 20 µM; in the assay on DOHH-2 (Homo sapiens), over 20 µM; in the assay with SU-DHL-2 (Homo sapiens, SU-DHL-2, 72 h), over 20 µM; with OCI-LY-10 (setting [3]), over 20 µM; in assay [1] (Homo sapiens, SW480, 24 h), 18.6 µM.

As to `O=C1N(Cc2cn(Cc3ccccc3)nn2)c2ccccc2C1(O)c1ccc(F)cc1` [(R) -3, 1-((1-Benzyl-1H-1,2,3-triazol-4-yl)methyl)-3-(4-fluorophenyl)-3-hydroxyindolin-2-one], the IC50 in the assay with VAL was over 20 µM; in the assay on DOHH-2 (Homo sapiens) it was over 20 µM; in the assay on SU-DHL-2 (Homo sapiens, SU-DHL-2, 72 h), over 20 µM; with OCI-LY-10 (setting [3]), over 20 µM; in assay [1] (Homo sapiens, SW480, 24 h), 49.1 µM.

`COc1ccc(C2(O)C(=O)N(Cc3cn(Cc4ccccc4)nn3)c3ccccc32)cc1` [(R) -4, 1-((1-Benzyl-1H-1,2,3-triazol-4-yl)methyl)-3-hydroxy-3-(4-methoxyphenyl)indolin-2-one]: the IC50 in assay [1] (Homo sapiens, SW480, 24 h) amounted to 76.4 µM.

Take `O=C1N(Cc2cn(Cc3ccccc3)nn2)c2ccccc2C1(O)c1ccsc1` [(R) -5, 1-((1-Benzyl-1H-1,2,3-triazol-4-yl)methyl)-3-hydroxy-3-(thiophen-3-yl)indolin-2-one]: the IC50 with VAL is over 20 µM; in the assay with DOHH-2 (Homo sapiens), over 20 µM; in the assay on SU-DHL-2 (Homo sapiens, SU-DHL-2, 72 h) it was over 20 µM; in the assay with OCI-LY-10 (setting [3]), over 20 µM; in assay [1], 86.4 µM.

In assay [1], `O=C1N(Cc2cn(Cc3ccccc3)nn2)c2ccccc2C1(O)c1cccc(O)c1` [(R) -6, 1-((1-Benzyl-1H-1,2,3-triazol-4-yl)methyl)-3-hydroxy-3-(3-hydroxyphenyl)indolin-2-one] returned an IC50 of 210 µM.

`O=C1N(Cc2cn(Cc3ccccc3)nn2)c2ccc(Br)cc2C1(O)c1ccccc1` [(R) -7, 1-((1-Benzyl-1H-1,2,3-triazol-4-yl)methyl)-5-bromo-3-hydroxy-3-phenylindolin-2-one]: the IC50 in assay [1] (Homo sapiens, SW480, 24 h) was 42.5 µM.

Regarding `O=C1N(Cc2cn(Cc3ccccc3)nn2)c2ccccc2C1(O)c1ccccc1` [(S) -1, 1-((1-Benzyl-1H-1,2,3-triazol-4-yl)methyl)-3-hydroxy-3-phenylindolin-2-one], inhibition in assay [1] was half-maximal at 63 µM (IC50).

`O=C1N(Cc2cn(Cc3ccccc3)nn2)c2ccccc2C1(O)c1ccc2ccccc2c1` [(S) -2, 1-((1-Benzyl-1H-1,2,3-triazol-4-yl)methyl)-3-hydroxy-3-(naphthalen-2-yl)indolin-2-one]: the IC50 was over 20 µM with VAL; over 20 µM with DOHH-2; 19 µM with SU-DHL-2; over 20 µM with OCI-LY-10 (OCI-LY-10 (ABC-DLBCL)); 12.8 µM in assay [1].

On to `O=C1N(Cc2cn(Cc3ccccc3)nn2)c2ccccc2C1(O)c1ccc(F)cc1` [(S) -3, 1-((1-Benzyl-1H-1,2,3-triazol-4-yl)methyl)-3-(4-fluorophenyl)-3-hydroxyindolin-2-one], for which the IC50 was over 20 µM in the assay with VAL; over 20 µM in the assay on DOHH-2; over 20 µM in the assay on SU-DHL-2; over 20 µM in the assay on OCI-LY-10 (OCI-LY-10 (ABC-DLBCL)); 25.9 µM in assay [1].

As for `COc1ccc(C2(O)C(=O)N(Cc3cn(Cc4ccccc4)nn3)c3ccccc32)cc1` [(S) -4, 1-((1-Benzyl-1H-1,2,3-triazol-4-yl)methyl)-3-hydroxy-3-(4-methoxyphenyl)indolin-2-one], the IC50 in assay [1] stood at 48.9 µM.

As to `O=C1N(Cc2cn(Cc3ccccc3)nn2)c2ccccc2C1(O)c1ccsc1` [(S) -5, 1-((1-Benzyl-1H-1,2,3-triazol-4-yl)methyl)-3-hydroxy-3-(thiophen-3-yl)indolin-2-one], it took 33 µM to reach half-maximal inhibition in assay [1] (IC50).

In turn, `O=C1N(Cc2cn(Cc3ccccc3)nn2)c2ccccc2C1(O)c1cccc(O)c1` [(S) -6, 1-((1-Benzyl-1H-1,2,3-triazol-4-yl)methyl)-3-hydroxy-3-(3-hydroxyphenyl)indolin-2-one] yielded an IC50 in assay [1] of 52.8 µM.

As to `O=C1N(Cc2cn(Cc3ccccc3)nn2)c2ccc(Br)cc2C1(O)c1ccccc1` [(S) -7, 1-((1-Benzyl-1H-1,2,3-triazol-4-yl)methyl)-5-bromo-3-hydroxy-3-phenylindolin-2-one], the 50% inhibitory concentration (IC50) in the assay with VAL was over 20 µM; in the assay on DOHH-2 (Homo sapiens), 19 µM; in the assay with SU-DHL-2 (Homo sapiens, SU-DHL-2, 72 h) it was 19 µM; in the assay on OCI-LY-10 (setting [3]) it was over 20 µM; in assay [1], 34.1 µM.

`Cc1ccc(C2(O)C(=O)N(Cc3cn(Cc4ccccc4)nn3)c3ccccc32)cc1` [(S) -8, 1-((1-Benzyl-1H-1,2,3-triazol-4-yl)methyl)-3-hydroxy-3-p-tolylindolin-2-one] registered an IC50 in assay [1] (Homo sapiens, SW480, 24 h) of over 200 µM.

As for `CCCCn1cc(CN2C(=O)C(O)(c3ccccc3)c3ccccc32)nn1` [(S) -9, 1-((1-Butyl-1H-1,2,3-triazol-4-yl)methyl)-3-hydroxy-3-phenylindolin-2-one], the IC50 in assay [1] (Homo sapiens, SW480, 24 h) is over 200 µM.

As for `COc1cccc2c1C(=O)c1c(O)c3c(c(O)c1C2=O)C[C@@](O)(C(=O)CO)C[C@@H]3O[C@H]1C[C@H](N)[C@H](O)[C@H](C)O1` [Dox, doxorubicin], the IC50 in assay [2] is 65.3 µM.

Turning to `CC(C)[C@H]1CC[C@H](C)C[C@H]1n1cc(CN2C(=O)C(=O)c3ccccc32)nn1` [ISATIN-BENZYL, 1-((1-((1R,2R,5S)-2-Isopropyl-5-methylcyclohexyl)-1H-1,2,3-triazol-4-yl)methyl)indoline-2,3-dione], the IC50 with VAL is over 20 µM; in the assay with DOHH-2 (Homo sapiens) it was over 20 µM; in the assay with SU-DHL-2 (Homo sapiens) it was 5 µM; in the assay with OCI-LY-10 (setting [3]), 1 µM; in assay [1] (Homo sapiens), 84.4 µM.

With `O=C1C(=O)N(Cc2cn(Cc3ccccc3)nn2)c2ccccc21` [ISATIN-MENTHOL, 1-((1-Benzyl-1H-1,2,3-triazol-4-yl)methyl)indoline-2,3-dione], the IC50 in the assay on VAL was over 20 µM; in the assay with DOHH-2 (Homo sapiens) it was over 20 µM; in the assay on SU-DHL-2 (Homo sapiens), 15 µM; in the assay on OCI-LY-10 (setting [3]), 7 µM; in assay [1] (Homo sapiens), 13.7 µM.

The values are drawn from patent publication EP3400938B1, “NOVEL N-(1,2,3-TRIAZOLMETHYL)ISATIN AND N-(1,2,3-TRIAZOLMETHYL)-3-HYDROXY-3-ARYLOXINDOLES WITH CYTOTOXIC AND ANTI-TUMOR ACTIVITY” (Universidade de Évora, priority 2017, dated 2018).
